According to the supplement of paper PMC10307832:

Experiments:
Assay in all cases: relative viability (nuclei count vs DMSO), 5 days (fraction); higher = more cells survive
Palbociclib + Trametinib = compound: CC(=O)c1c(C)c2cnc(Nc3ccc(N4CCNCC4)cn3)nc2n(C2CCCC2)c1=O [Palbociclib] + CC(=O)Nc1cccc(-n2c(=O)n(C3CC3)c(=O)c3c(Nc4ccc(I)cc4F)n(C)c(=O)c(C)c32)c1 [Trametinib] (partner 0.02 µM)
In short: (§1)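 Medians of duplicate plates are given as relative viability. That measure is the nuclei count in treated wells divided by the count in vehicle wells. Counts were taken on 4× images of lung cancer cell lines in 1536-well plates, 5 days after pin-tool dosing the day after seeding with one drug alone or a fixed anchor-drug dose plus five library-drug doses (not always all listed) in √10 steps.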

Palbociclib + Tozasertib = compound: CC(=O)c1c(C)c2cnc(Nc3ccc(N4CCNCC4)cn3)nc2n(C2CCCC2)c1=O [Palbociclib] + Cc1cc(Nc2cc(N3CCN(C)CC3)nc(Sc3ccc(NC(=O)C4CC4)cc3)n2)n[nH]1 [Tozasertib] (partner 0.1 µM)
In short: as §1

Palbociclib + Navitoclax = compound: CC(=O)c1c(C)c2cnc(Nc3ccc(N4CCNCC4)cn3)nc2n(C2CCCC2)c1=O [Palbociclib] + CC1(C)CCC(c2ccc(Cl)cc2)=C(CN2CCN(c3ccc(C(=O)NS(=O)(=O)c4ccc(N[C@H](CCN5CCOCC5)CSc5ccccc5)c(S(=O)(=O)C(F)(F)F)c4)cc3)CC2)C1 [Navitoclax] (partner 0.5 µM)
In short: as §1

Palbociclib + Decitabine = compound: CC(=O)c1c(C)c2cnc(Nc3ccc(N4CCNCC4)cn3)nc2n(C2CCCC2)c1=O [Palbociclib] + Nc1ncn([C@H]2C[C@H](O)[C@@H](CO)O2)c(=O)n1 [Decitabine] (partner 2 µM)
In short: as §1

| Cell Line | relative viability (Palbociclib + Trametinib; first compound 0.01 µM) | relative viability (Palbociclib + Trametinib; first compound 0.03162 µM) | relative viability (Palbociclib + Trametinib; first compound 0.1 µM) | relative viability (Palbociclib + Trametinib; first compound 0.3162 µM) | relative viability (Palbociclib + Trametinib; first compound 1 µM) | relative viability (Palbociclib + Tozasertib; first compound 0.01 µM) | relative viability (Palbociclib + Tozasertib; first compound 0.03162 µM) | relative viability (Palbociclib + Tozasertib; first compound 0.1 µM) | relative viability (Palbociclib + Tozasertib; first compound 0.3162 µM) | relative viability (Palbociclib + Tozasertib; first compound 1 µM) | relative viability (Palbociclib + Navitoclax; first compound 0.01 µM) | relative viability (Palbociclib + Navitoclax; first compound 0.03162 µM) | relative viability (Palbociclib + Navitoclax; first compound 0.1 µM) | relative viability (Palbociclib + Navitoclax; first compound 0.3162 µM) | relative viability (Palbociclib + Navitoclax; first compound 1 µM) | relative viability (Palbociclib + Decitabine; first compound 0.01 µM) | relative viability (Palbociclib + Decitabine; first compound 0.03162 µM) | relative viability (Palbociclib + Decitabine; first compound 0.1 µM) | relative viability (Palbociclib + Decitabine; first compound 0.3162 µM) | relative viability (Palbociclib + Decitabine; first compound 1 µM) |
| --- | --- | --- | --- | --- | --- | --- | --- | --- | --- | --- | --- | --- | --- | --- | --- | --- | --- | --- | --- | --- |
| NCI-H322M | 0.499 | 0.474 | 0.491 | 0.482 | 0.51 | 0.471 | 0.448 | 0.403 | 0.412 | 0.343 | 1.14 | 1.31 | 1.03 | 0.964 | 0.808 | 0.691 | 0.654 | 0.674 | 0.654 | 0.521 |
| NCI-H441 | 0.483 | 0.409 | 0.23 | 0.228 | 0.155 | 0.689 | 0.739 | 0.577 | 0.446 | 0.373 | – | 0.593 | 0.336 | 0.484 | 0.572 | 0.22 | 0.244 | 0.241 | 0.241 | 0.236 |
| NCI-H460 | 0.0946 | 0.116 | 0.0577 | 0.185 | 0.0348 | 0.33 | 0.0915 | 0.563 | 0.486 | 0.467 | 1.08 | 0.944 | 0.912 | 0.662 | 0.175 | 0.432 | 0.415 | 0.503 | 0.46 | 0.264 |
| NCI-H520 | 0.84 | 0.574 | 0.561 | 0.541 | 0.245 | 0.445 | 0.424 | 0.238 | 0.329 | 0.249 | 1.08 | 0.719 | 0.745 | 0.785 | 0.481 | 0.491 | 0.417 | 0.423 | 0.395 | 0.29 |
| NCI-H596 | 0.793 | 0.632 | 0.875 | 0.757 | 0.954 | 0.951 | – | 1 | 0.935 | 0.965 | 0.99 | 0.945 | 0.976 | 0.949 | 1.1 | 1.15 | 0.973 | 1.05 | 0.945 | 1.22 |
| NCI-H647 | 0.502 | 0.305 | 0.428 | 0.346 | 0.272 | 0.272 | 0.286 | 0.266 | 0.465 | 0.435 | 1.33 | 0.92 | 0.759 | 0.93 | 0.738 | 0.408 | 0.315 | 0.356 | 0.392 | 0.337 |
| NCI-H727 | 0.366 | 0.336 | 0.397 | 0.387 | 0.403 | 0.589 | 0.482 | 0.52 | 0.529 | 0.405 | 0.429 | 0.406 | 0.324 | 0.266 | 0.326 | 0.866 | 0.964 | 0.895 | 0.829 | 0.669 |
| NCI-H838 | 0.643 | 0.477 | 0.396 | 0.376 | 0.175 | 0.272 | 0.248 | 0.213 | 0.194 | 0.204 | 1.16 | 1.03 | 0.859 | 0.938 | 0.423 | 0.455 | 0.461 | 0.48 | 0.434 | 0.353 |
| NCI-H1355 | 0.433 | 0.448 | 0.422 | 0.391 | 0.363 | 0.613 | 0.521 | 0.583 | 0.556 | 0.454 | 0.943 | – | 0.772 | 0.755 | 0.597 | 0.348 | 0.379 | 0.352 | 0.351 | 0.342 |
| NCI-H1395 | 1.08 | 0.884 | 0.816 | 0.854 | 0.731 | 0.791 | 0.709 | 0.627 | 0.676 | 0.635 | 1.22 | 1.17 | 0.924 | 0.943 | 0.656 | 0.741 | 0.704 | 0.656 | 0.702 | 0.641 |
| NCI-H1437 | 0.553 | 0.522 | 0.456 | 0.332 | 0.293 | 0.368 | 0.351 | 0.287 | 0.376 | 0.307 | 1.1 | 1.04 | 0.933 | 0.923 | 0.563 | 0.582 | 0.551 | 0.569 | 0.494 | 0.408 |
| NCI-H1650 | 0.623 | 0.575 | 0.39 | 0.58 | 0.411 | 0.48 | 0.317 | 0.44 | 0.337 | 0.338 | 1.41 | 1.07 | 0.948 | 1.03 | 0.673 | 0.414 | 0.427 | 0.474 | 0.421 | 0.349 |
| NCI-H1651 | 0.841 | 0.798 | 0.743 | 0.803 | 0.714 | 0.749 | 0.603 | 0.665 | 0.617 | 0.685 | 1.13 | 0.986 | 0.907 | 0.992 | 0.736 | 0.636 | 0.535 | 0.636 | 0.555 | 0.451 |
| NCI-H1666 | 0.862 | 0.704 | 0.784 | 0.727 | 0.728 | 0.642 | 0.585 | 0.539 | 0.47 | 0.458 | 0.929 | 0.782 | 0.792 | 0.544 | 0.448 | 0.725 | 0.67 | 0.721 | 0.682 | 0.565 |
| NCI-H1734 | 0.617 | 0.6 | 0.581 | 0.56 | 0.481 | 0.267 | 0.253 | 0.29 | 0.231 | 0.277 | 0.928 | 0.779 | 0.708 | 0.593 | 0.487 | 0.46 | 0.524 | 0.539 | 0.461 | 0.43 |
| NCI-H1755 | 0.804 | 0.746 | 0.688 | 0.719 | 0.597 | 0.578 | 0.596 | 0.558 | 0.506 | 0.506 | 1.03 | 0.974 | 0.876 | 0.818 | 0.715 | 0.742 | 0.744 | 0.614 | 0.7 | 0.635 |
